Publication PMC7804268, “Engineering and elucidation of the lipoinitiation process in nonribosomal peptide biosynthesis” (Nature Communications, 2021)

Target: T1, RzmA-Cs (Mycetohabitans rhizoxinica, UniProt E5ATN9, R148A)
T1 construct: gene RBRH_01504; excised starter condensation (Cs) domain, residues 1-431, pET28a, E. coli BL21(DE3), N-terminal His6 tag removed by thrombin, size-exclusion purified
T1 sequence (E5ATN9 1-431 R148A): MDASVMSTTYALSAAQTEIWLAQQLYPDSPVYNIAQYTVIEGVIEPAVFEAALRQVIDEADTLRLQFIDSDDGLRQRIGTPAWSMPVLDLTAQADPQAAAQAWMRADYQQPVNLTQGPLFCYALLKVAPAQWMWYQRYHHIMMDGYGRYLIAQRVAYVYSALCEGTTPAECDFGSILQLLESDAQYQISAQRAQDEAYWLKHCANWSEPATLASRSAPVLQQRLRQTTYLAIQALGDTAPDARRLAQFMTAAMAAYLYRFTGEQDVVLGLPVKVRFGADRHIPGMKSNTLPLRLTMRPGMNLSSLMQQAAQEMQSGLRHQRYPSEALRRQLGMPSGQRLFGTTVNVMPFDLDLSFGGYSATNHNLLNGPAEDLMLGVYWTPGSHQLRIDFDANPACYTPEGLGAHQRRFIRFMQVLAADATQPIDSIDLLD
Experiment: isothermal titration calorimetry
Type: binding

**Q.** `CCCCCCCC(=O)SCCNC(=O)CCNC(=O)[C@H](O)C(C)(C)COP(=O)(O)OP(=O)(O)OC[C@H]1O[C@@H](n2cnc3c(N)ncnc32)[C@H](O)[C@@H]1OP(=O)(O)O` [3d, C8-CoA] was tested. Which Kd did it give?
**A.** Its Kd is roughly 300 nM.
